Source: ChEMBL document CHEMBL3044687, “Microwave-assisted synthesis of some novel and potent antibacterial and antifungal compounds with biological screening” (2012)

Legend:
Type in all cases: functional
Settings in all cases: read-out: DIZ
[1] = test system: Pseudomonas aeruginosa; test: Antibacterial activity against Pseudomonas aeruginosa at 50 ug/ml after 24 hr by disk diffusion method
[2] = test system: Candida albicans; test: Antifungal activity against Candida albicans at 200 ug/ml after 48 hr by disk diffusion method
[3] = test system: Candida albicans; test: Antifungal activity against Candida albicans at 100 ug/ml after 48 hr by disk diffusion method
[4] = test system: Escherichia coli; test: Antibacterial activity against Escherichia coli at 100 ug/ml after 24 hr by disk diffusion method
[5] = test system: Escherichia coli; test: Antibacterial activity against Escherichia coli at 200 ug/ml after 24 hr by disk diffusion method
[6] = test system: Bacillus subtilis; test: Antibacterial activity against Bacillus subtilis at 100 ug/ml after 24 hr by disk diffusion method
[7] = test system: Staphylococcus aureus; test: Antibacterial activity against Staphylococcus aureus at 50 ug/ml after 24 hr by disk diffusion method
[8] = test system: Pseudomonas aeruginosa; test: Antibacterial activity against Pseudomonas aeruginosa at 100 ug/ml after 24 hr by disk diffusion method
[9] = test system: Staphylococcus aureus; test: Antibacterial activity against Staphylococcus aureus at 200 ug/ml after 24 hr by disk diffusion method
[10] = test system: Aspergillus niger; test: Antifungal activity against Aspergillus niger at 100 ug/ml after 48 hr by disk diffusion method
[11] = test system: Pseudomonas aeruginosa; test: Antibacterial activity against Pseudomonas aeruginosa at 200 ug/ml after 24 hr by disk diffusion method
[12] = test system: Candida albicans; test: Antifungal activity against Candida albicans at 50 ug/ml after 48 hr by disk diffusion method
[13] = test system: Aspergillus niger; test: Antifungal activity against Aspergillus niger at 200 ug/ml after 48 hr by disk diffusion method
[14] = test system: Escherichia coli; test: Antibacterial activity against Escherichia coli at 50 ug/ml after 24 hr by disk diffusion method
[15] = test system: Bacillus subtilis; test: Antibacterial activity against Bacillus subtilis at 50 ug/ml after 24 hr by disk diffusion method
[16] = test system: Aspergillus niger; test: Antifungal activity against Aspergillus niger at 50 ug/ml after 48 hr by disk diffusion method
[17] = test system: Staphylococcus aureus; test: Antibacterial activity against Staphylococcus aureus at 100 ug/ml after 24 hr by disk diffusion method
[18] = test system: Bacillus subtilis; test: Antibacterial activity against Bacillus subtilis at 200 ug/ml after 24 hr by disk diffusion method

SMILES | zone of inhibition at 50 µg/mL [1] [mm] | zone of inhibition at 200 µg/mL [2] [mm] | zone of inhibition at 100 µg/mL [3] [mm] | zone of inhibition at 100 µg/mL [4] [mm] | zone of inhibition at 200 µg/mL [5] [mm] | zone of inhibition at 100 µg/mL [6] [mm] | zone of inhibition at 50 µg/mL [7] [mm] | zone of inhibition at 100 µg/mL [8] [mm] | zone of inhibition at 200 µg/mL [9] [mm] | zone of inhibition at 100 µg/mL [10] [mm] | zone of inhibition at 200 µg/mL [11] [mm] | zone of inhibition at 50 µg/mL [12] [mm] | zone of inhibition at 200 µg/mL [13] [mm] | zone of inhibition at 50 µg/mL [14] [mm] | zone of inhibition at 50 µg/mL [15] [mm] | zone of inhibition at 50 µg/mL [16] [mm] | zone of inhibition at 100 µg/mL [17] [mm] | zone of inhibition at 200 µg/mL [18] [mm]
CN(C)CN1C(=O)N(c2ccccc2)C(=O)C1(c1ccccc1)c1ccccc1 | 6 | 19 | 18 | 13 | 18 | 10 | 4 | 10 | 12 | 18 | 14 | 16 | 18 | 5 | 5 | 16 | 9 | 18
CN1CCN(CN2C(=O)NC(c3ccccc3)(c3ccccc3)C2=O)CC1 | 4 | 13 | 13 | 13 | 16 | 12 | 6 | 6 | 20 | 12 | 10 | 12 | 12 | 6 | 4 | 11 | 12 | 19
CN(C)CN1C(=O)NC(c2ccccc2)(c2ccccc2)C1=O | 6 | 19 | 18 | 13 | 22 | 10 | 4 | 10 | 12 | 18 | 17 | 16 | 18 | 5 | 5 | 16 | 9 | 22
O=C1NC(c2ccccc2)(c2ccccc2)C(=O)N1CN1C(=O)c2ccccc2C1=O | 5 | 20 | 16 | 12 | 20 | 12 | 4 | 8 | 9 | 15 | 10 | 15 | 16 | 5 | 4 | 12 | 6 | 16
CCN(CC)CN1C(=O)NC(c2ccccc2)(c2ccccc2)C1=O | 5 | 11 | 10 | 13 | 18 | 9 | 5 | 9 | 14 | 10 | 14 | 9 | 12 | 3 | 3 | 8 | 10 | 15
O=C1N(c2ccccc2)C(=O)C(c2ccccc2)(c2ccccc2)N1Cn1nnc2ccccc21 | 6 | 13 | 12 | 8 | 14 | 12 | 4 | 10 | 14 | 11 | 12 | 11 | 11 | 3 | 5 | 11 | 10 | 18
O=C1N(c2ccccc2)C(=O)C(c2ccccc2)(c2ccccc2)N1CNc1nc2ccccc2s1 | 7 | 20 | 15 | 15 | 17 | 10 | 5 | 12 | 17 | 16 | 20 | 13 | 20 | 6 | 7 | 16 | 10 | 18
O=C1NC(c2ccccc2)(c2ccccc2)C(=O)N1Cn1cnc2ccccc21 | 6 | 32 | 24 | 15 | 24 | 13 | 5 | 11 | 15 | 19 | 14 | 16 | 32 | 7 | 5 | 16 | 13 | 23
CN1CCN(CN2C(=O)N(c3ccccc3)C(=O)C2(c2ccccc2)c2ccccc2)CC1 | 4 | 13 | 13 | 13 | 16 | 5 | 6 | 6 | 18 | 12 | 10 | 12 | 12 | 6 | 4 | 11 | 10 | 14
